Measurements as given in PubChem BioAssay AID192 (DTP/NCI, 2004).
Values joined by “and” are separate entries in the source; they are usually repeats but may differ in a detail not shown here. Identical values can stand only once. Inconclusive results and toxic doses are left out.

System: BDF1 mice, B16 melanoma ip, median survival T/C
Assay: NCI In Vivo Anticancer Drug Screen. Data for tumor model B16 Melanoma (intraperitoneal) in B6D2F1 (BDF1) mice
Conditions: endpoint: median survival time, higher = longer survival
Summary of the method: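 Tumor-bearing mice received test compound or vehicle. Survival or tumor size was then measured in both groups. The treated-group figure was divided by the control-group figure.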

[1] = dose: 100.0 mg/kg/injection, schedule: Q01DX009 (ip), vehicle: Klucel (hydroxypropylcellulose) (HPC)
[2] = dose: 200.0 mg/kg/injection, schedule: Q01DX009 (ip), vehicle: Klucel (hydroxypropylcellulose) (HPC)
[3] = dose: 25.0 mg/kg/injection, schedule: Q01DX009 (ip), vehicle: Klucel (hydroxypropylcellulose) (HPC)
[4] = dose: 50.0 mg/kg/injection, schedule: Q01DX009 (ip), vehicle: Klucel (hydroxypropylcellulose) (HPC)

Question: Which T/C [1] does the source give for `Cc1ccc(CS)cc1` here?
Answer: 112 % of control

Question: And the T/C [2]?
Answer: 118 % of control

Question: `C=C(Cl)CN(CCCC(=O)O)c1cccc(OC)c1` was tested. Which T/C (dose: 100.0 mg/kg/injection, schedule: Q04DX003 (ip), vehicle: other) did it give?
Answer: 104 % of control

Question: What about the T/C (dose: 200.0 mg/kg/injection, schedule: Q04DX003 (ip), vehicle: other) of the same compound?
Answer: 96 % of control

Question: And the T/C (dose: 400.0 mg/kg/injection, schedule: Q04DX003 (ip), vehicle: other)?
Answer: 94 % of control

Question: `COc1cc2c(c(OC)c1OC)-c1ccc(OC)c(=O)cc1[C@@H](NC(=O)c1ccccc1)CC2` was tested. Which T/C (dose: 1.0 mg/kg/injection, schedule: Q01DX009 (ip), vehicle: Klucel (hydroxypropylcellulose) (HPC)) did it give?
Answer: 173 % of control and 190 % of control

Question: What about the T/C (dose: 2.0 mg/kg/injection, schedule: Q01DX009 (ip), vehicle: Klucel (hydroxypropylcellulose) (HPC)) of the same compound?
Answer: 156 % of control and 161 % of control

Question: For `CCCCCCCCCCCCCCCC(=O)NNC(C)C`, which T/C [3] is on record?
Answer: 96 % of control

Question: What about the T/C [4] of the same compound?
Answer: 90 % of control

Question: What about the T/C [1] of the same compound?
Answer: 86 % of control

Question: Which results are given for `O=C(CNC(=O)Nc1ccc(C2=NCCN2)cc1)Nc1ccc(C2=NCCN2)cc1`?
Answer: T/C (dose: 6.25 mg/kg/injection, schedule: Q01DX009 (ip), vehicle: saline with Tween-80): 97 % of control; T/C (dose: 12.5 mg/kg/injection, schedule: Q01DX009 (ip), vehicle: saline with Tween-80): 100 % of control; T/C (dose: 25.0 mg/kg/injection, schedule: Q01DX009 (ip), vehicle: saline with Tween-80): 97 % of control

Question: With `C/C(=N\O)c1ccccn1` as the compound, how does the T/C (dose: 50.0 mg/kg/injection, schedule: Q01DX009 (ip), vehicle: other) read?
Answer: 110 % of control

Question: And the T/C (dose: 100.0 mg/kg/injection, schedule: Q01DX009 (ip), vehicle: other)?
Answer: 111 % of control

Question: And the T/C (dose: 200.0 mg/kg/injection, schedule: Q01DX009 (ip), vehicle: other)?
Answer: 97 % of control

Question: What about the T/C (dose: 400.0 mg/kg/injection, schedule: Q01DX009 (ip), vehicle: other) of the same compound?
Answer: 90 % of control

Question: For `CC(=O)c1c(O)c(C)c(O)c2c1OC1=CC(=O)C(C(C)=O)C(=O)C12C` (configuration not stated), which T/C (dose: 5.0 mg/kg/injection, schedule: Q01DX009 (ip), vehicle: gum acacia) is on record?
Answer: 107 % of control

Question: And the T/C (dose: 6.25 mg/kg/injection, schedule: Q01DX009 (ip), vehicle: gum acacia)?
Answer: 92 % of control

Question: And the T/C (dose: 12.5 mg/kg/injection, schedule: Q01DX009 (ip), vehicle: gum acacia)?
Answer: 108 % of control

Question: And the T/C (dose: 20.0 mg/kg/injection, schedule: Q01DX009 (ip), vehicle: gum acacia)?
Answer: 100 % of control

Question: What about the T/C (dose: 40.0 mg/kg/injection, schedule: Q01DX009 (ip), vehicle: gum acacia) of the same compound?
Answer: 102 % of control

Question: What about the T/C (dose: 50.0 mg/kg/injection, schedule: Q01DX009 (ip), vehicle: gum acacia) of the same compound?
Answer: 108 % of control

Question: And the T/C (dose: 80.0 mg/kg/injection, schedule: Q01DX009 (ip), vehicle: gum acacia)?
Answer: 105 % of control

Question: What about the T/C (dose: 100.0 mg/kg/injection, schedule: Q01DX009 (ip), vehicle: gum acacia) of the same compound?
Answer: 97 % of control

Question: Which T/C (dose: 100.0 mg/kg/injection, schedule: Q01DX009 (ip), vehicle: saline) does the source give for `O=S(=O)(O)c1cc(O)c2ccccc2c1` here?
Answer: 107 % of control

Question: What about the T/C (dose: 200.0 mg/kg/injection, schedule: Q01DX009 (ip), vehicle: saline) of the same compound?
Answer: 100 % of control

Question: And the T/C (dose: 400.0 mg/kg/injection, schedule: Q01DX009 (ip), vehicle: saline)?
Answer: 102 % of control

Question: What does the source list for `CC(OC(C)c1ccccc1)c1ccccc1` (configuration not stated)?
Answer: T/C [1]: 113 % of control; T/C [2]: 106 % of control; T/C (dose: 400.0 mg/kg/injection, schedule: Q01DX009 (ip), vehicle: Klucel (hydroxypropylcellulose) (HPC)): 103 % of control

Question: For `COC1=CC(=O)C(O)=C(CC2(C)C(C)CCC3(C)C2CCCC3(C)C)C1=O` (configuration not stated), which T/C (dose: 3.12 mg/kg/injection, schedule: Q01DX009 (ip), vehicle: Klucel (hydroxypropylcellulose) (HPC)) is on record?
Answer: 91 % of control

Question: What about the T/C (dose: 6.25 mg/kg/injection, schedule: Q01DX009 (ip), vehicle: Klucel (hydroxypropylcellulose) (HPC)) of the same compound?
Answer: 96 % of control

Question: What about the T/C (dose: 12.5 mg/kg/injection, schedule: Q01DX009 (ip), vehicle: Klucel (hydroxypropylcellulose) (HPC)) of the same compound?
Answer: 96 % of control

Question: What about the T/C [3] of the same compound?
Answer: 104 % of control

Question: And the T/C [4]?
Answer: 100 % of control

Question: What about the T/C [1] of the same compound?
Answer: 100 % of control

Question: For `CCC1=C[C@H]2CN(CCc3c([nH]c4ccccc34)[C@@](C(=O)OC)(c3cc4c(cc3OC)N(C)[C@H]3[C@@](O)(C(=O)NC)[C@H](OC(C)=O)[C@]5(CC)C=CCN6CC[C@]43[C@@H]65)C2)C1`, which T/C (dose: 0.05 mg/kg/injection, schedule: Q01DX009 (ip), vehicle: Klucel (hydroxypropylcellulose) (HPC)) is on record?
Answer: 119 % of control

Question: What about the T/C (dose: 0.06 mg/kg/injection, schedule: Q01DX009 (ip), vehicle: water) of the same compound?
Answer: 156 % of control

Question: And the T/C (dose: 0.1 mg/kg/injection, schedule: Q01DX009 (ip), vehicle: Klucel (hydroxypropylcellulose) (HPC))?
Answer: 113 % of control

Question: And the T/C (dose: 0.12 mg/kg/injection, schedule: Q01DX009 (ip), vehicle: water)?
Answer: 160 % of control and 183 % of control

Question: What about the T/C (dose: 0.12 mg/kg/injection, schedule: Q04DX003 (ip), vehicle: water) of the same compound?
Answer: 123 % of control

Question: And the T/C (dose: 0.2 mg/kg/injection, schedule: Q01DX009 (ip), vehicle: Klucel (hydroxypropylcellulose) (HPC))?
Answer: 124 % of control

Question: What about the T/C (dose: 0.25 mg/kg/injection, schedule: Q01DX009 (ip), vehicle: water) of the same compound?
Answer: 181 % of control and 220 % of control

Question: What about the T/C (dose: 0.5 mg/kg/injection, schedule: Q01DX009 (ip), vehicle: water) of the same compound?
Answer: 157 % of control

Question: What about the T/C (dose: 0.5 mg/kg/injection, schedule: Q04DX003 (ip), vehicle: water) of the same compound?
Answer: 156 % of control

Question: What about the T/C (dose: 1.6 mg/kg/injection, schedule: Q01DX009 (ip), vehicle: Klucel (hydroxypropylcellulose) (HPC)) of the same compound?
Answer: 181 % of control
